Source: patent US20160231319A1, “METHOD OF ENHANCING HEMATOPOIETIC CELL TRANSPLANTATION” (Verve, Ltd., priority 2014, published 2016)

Experiments:
UCB HSC = conditions: pulse incubation of UCB cells; clinical trial; cited from earlier work
[1] = system: phospho-GSK-3β in CD34+ cells from UCB; test: UCB mononuclear cells treated with PGE2; phospho-GSK-3β expression in CD34+ cells by high-resolution flow cytometry; assay type: cell-based; conditions: UCB treated with reagent vehicle (DMSO) versus PGE2
Text: Using our high-resolution flow cytometric technology, we have studied HSC for measures of potency. Our conception has been that expression levels of molecules shown to be important for hematopoiesis in experimental studies may have utility in assessing the potency of HSC in terms of engraftment after transplantation.
In order to assess molecular expression level correlates of potency in UCB HSC, we treated UCB mononuclear cells with PGE2 and assessed the expression of […].
This is consistent with our previous finding that phospho-GSK-3β is a potency biomarker.

## CCCCC[C@H](O)/C=C/[C@H]1[C@H](O)CC(=O)[C@@H]1C/C=C\CCCC(=O)O [PGE2, Prostaglandin E2]
UCB HSC
  potency of the HSC in terms of engraftment: enhances the potency of the HSC in terms of engraftment
[1]
  expression of phospho-GSK-3β in CD34+ cells: able to detect differences in expression of phospho-GSK-3β
